Experimental data taken from patent US20220088195A1, “Prevention or mitigation of T-cell bispecific antibody-related adverse effects” (Hoffmann-La Roche Inc., priority 2020, published 2022).

How the values were obtained:
[1] = tested on: A375 NucLight Red (NLR) target cells; assay: Incucyte real time killing assay, PBMCs + RMF peptide-pulsed A375 NLR target cells + HLA-A2 WT1-TCB with escalating dasatinib; type: cell-based, human
Experimental: FIG. 1. Real time killing of red fluorescent A375 cells loaded with RMF peptides by 10 nM HLA-A2 WT-1-TCB (A) and of red fluorescent MKN45 cells by 1 nM CEA-TCB (B) in the presence of different dasatinib concentrations ranging from 100 nM to 0 nM. (A) A375 NucLight Red (NLR) target cells were pulsed with RMF peptides (2 hours before killing assay) and co-cultured with HLA-A2 WT1-TCB, dasatinib (dasa) and PBMCs, effector to target ratio (E:T)=10:1 (E:T=50 000 PBMCs:5000 target cells). Killing was followed by Incucyte® (1 scan every 3 hours, zoom 10×, phase and red 400 ms acquisition time). % Killing was measured by normalizing total red area with values at t=0 hour and target cells+PBMCs+dasatinib (without TCB) control wells for each time point. Means of technical replicates+/−SEM for 1 donor. (B) MKN45 NLR target cells were co-cultured with CEA TCB, dasatinib and PBMCs, E:T=10:1 (E:T=50 000 PBMCs:5000 target cells). Killing was followed by Incucyte (1 scan every 3 hours, zoom 10×, phase and red 400 ms acquisition time). % Killing was measured by normalizing total red area with values at t=0 hour and target cells+PBMCs+dasatinib control wells for each time point. Means of technical replicates+/−SEM for 1 donor.
To assess the inhibitory effect of dasatinib on TCB-mediated target-cell killing, we conducted killing assays using peripheral blood mononuclear cells (PBMCs), NucLight Red (NLR) target-cells and respective TCB in media supplemented with escalating concentrations of dasatinib. The Incucyte® system (Essen Bioscience) was used to capture the loss of red fluorescent protein signal over time as a readout of target-cell killing.

[2] = tested on: IFN-γ, IL-2 and TNF-α release; assay: Cytokine release in supernatants of the CEA-TCB killing assay (Luminex, 96 hours); type: cell-based, human; settings: dasatinib above 12.5 nM, 1 nM CEA-TCB
Experimental: Cytokine release. Supernatant were collected at the endpoint (96 hours) of the assay in FIG. 1 and cytokines ((A) IFNγ, (B) IL-2, (C) TNF-α) measured by multiplex cytokine analysis (Luminex). 1 nM CEA-TCB, 1 donor.

CD4+ and CD8+ T cells = assay: T cell proliferation (CTV dye dilution) and T cell counts in SKM-1 killing assay with HLA-A2 WT-1-TCB; type: cell-based, human
Experimental: FIG. 3. In vitro killing assay set-up and timelines. PBMCs were co-cultured with SKM-1 target cells (E:T=10:1) and 10 nM HLA-A2 WT-1-TCB. Dasatinib (100 nM) was added after 24 hours of activation. PBMCs were labelled with CellTrace™ Violet (CTV) to allow T cell proliferation assessment.
FIG. 6. T cell proliferation. In the assay of FIG. 3, proliferation of CD4+ (A) and CD8+ (B) T cells was measured by FACS 144h after stimulation with HLA-A2 WT-1 TCB by analysis of CTV dye dilution.
FIG. 7. Counts of CD4+ and CD8+ T cells. In the assay of FIG. 3, CD4+ (A) and CD8+(B) T cells counts were measured by FACS, mean of 3 donors+/−SD. paired t test, one tailed p value: 0.1234 (ns), 0.0332 (*), 0.0021 (**), 0.0002 (***), <0.0001 (****).
Furthermore, we assessed T cell proliferation 120 hours after the addition of 100 nM dasatinib in the killing assay by measuring the dilution peaks of the CellTrace™ violet (CTV) dye by flow cytometry.

[3] = tested on: lymphoma patient derived xenograft (PDX); assay: Humanized NSG mice engrafted with lymphoma PDX: serum cytokines, body weight, tumor growth; type: in vivo
Experimental: Humanized NSG mice were engrafted with a lymphoma PDX (5 million cells, s.c.). When tumors reached 200 mm^3, mice were randomized in groups of 8 or 7 based on their tumor size. They were treated with vehicle (i.v.), 0.5 mg/kg CD19-TCB (i.v.) as a monotherapy, 20 mg/kg dasatinib (p.o.) alone or in combination with 0.5 mg/kg CD19-TCB (i.v.). The serum of each mouse in the vehicle, CD19-TCB, and CD19-TCB+dasatinib groups and of n=4 mice in the dasatinib group was collected by tail-vein bleeding 6 hrs after the first treatment with CD19-TCB.
Cytokine levels in each individual mouse from the experiment described in FIG. 37. The levels of IFN-γ (A), TNF-α (B), IL-2 (C) and IL-6 (D) were measured in the serum by multiplex cytokine analysis using Luminex. Mean of n=6-8 mice+/−SEM with *p≤0.05, **p≤0.01, ***p≤0.001 by 1 way ANOVA (Kruskal Wallis test).
Body weight loss for each individual mouse from the experiment described in FIG. 37. The change in body weight [%] is measured as a percentage of the body weight before first treatment with CD19-TCB for each mouse. Box and whiskers showing minimum to maximum values of n=6-8 mice per group.
Tumor growth curves of the experiment described in FIG. 37. Tumor growth curves were plotted from tumor volumes measured using a Caliper, mean of n=6-8 mice+SD with **p≤0.01 by 1 way ANOVA (Kruskal Wallis test).
We evaluated the impact of transient interventions with dasatinib on CD19-TCB anti-tumor activity in humanized NSG mice engrafted with a lymphoma patient derived xenograft (PDX). Therefore, mice were treated with either vehicle, 0.5 mg/kg CD19-TCB as a monotherapy, or 20 mg/kg dasatinib, alone or in combination with 0.5 mg/kg CD19-TCB (FIG. 37). Dasatinib was given one hour prior and 6 hrs after the first treatment with CD19-TCB and then twice per day for the next 2 days to prevent cytokine release, predominantly occurring upon the first infusion. Moreover, dasatinib was also administered one hour before each subsequent treatment to prevent eventual residual cytokine secretion (FIG. 37).

[4] = 146 patients, 100 mg dasatinib QD; cited from earlier work
[5] = blood of mice; cited from earlier work

Cc1nc(Nc2ncc(C(=O)Nc3c(C)cccc3Cl)s2)cc(N2CCN(CCO)CC2)n1 [dasatinib, N-(2-chloro-6-methylphenyl)-2-[[6-[4-(2-hydroxyethyl)-1-piperazinyl]-2-methyl-4-pyrimidinyl]amino]-5-thiazole carboxamide monohydrate] gave an inhibition at 0.0125 µM ([1]; Homo sapiens, A-375, 12.5 nM dasatinib, 10 nM HLA-A2 WT-1-TCB, read-out: inhibition of target-cell killing) of 78.2%, an inhibition at 0.05 µM ([1]; Homo sapiens, A-375, 50 nM (24.4 ng/mL) dasatinib, 10 nM HLA-A2 WT1-TCB, read-out: inhibition of target-cell killing) of 89% and an inhibition at 0.1 µM ([1]; Homo sapiens, A-375, 100 nM (48.8 ng/mL) dasatinib, 10 nM HLA-A2 WT1-TCB, read-out: inhibition of target-cell killing) of 86.5%. For the same molecule, the inhibition of killing ([1]; dasatinib concentrations below 12.5 nM, 10 nM HLA-A2 WT-1-TCB) was “only partially inhibited killing”, the “release of IFN-γ, IL-2 and TNF-α” value [2] was “prevented the release” and the “TCB-induced T cell proliferation (CTV dilution)” value (CD4+ and CD8+ T cells; 100 nM dasatinib added at 24 h, 120 hours after addition, 10 nM HLA-A2 WT-1-TCB) was “inhibited TCB-induced T cell proliferation with a stronger impact on CD4+ T cells than CD8+ T cells”. The “CD4+ and CD8+ T cell counts” value (CD4+ and CD8+ T cells; 100 nM dasatinib versus positive control without dasatinib) was “significantly higher in positive control samples which were not treated with 100 nM dasatinib, than in samples treated with 100 nM dasatinib”, the “CD19-TCB-mediated cytokine release (IFN-γ, TNF-α, IL-2, IL-6) upon the first infusion” value ([3]; 20 mg/kg dasatinib p.o. + 0.5 mg/kg CD19-TCB i.v., serum 6 hrs) was “strongly reduced” and the body weight change ([3]; 24 hrs after the first CD19-TCB treatment, 20 mg/kg dasatinib) was “milder body weight change”. The “interference with CD19-TCB anti-tumor efficacy (tumor growth curves)” value ([3]; transient use of 20 mg/kg dasatinib with 0.5 mg/kg CD19-TCB) was “minimally, yet not significantly, interfered”, the Cmax [4] was 54.6 ng/mL and the Cmin [4] was 2.61 ng/mL. The half-life [5] was “around 6 hrs”.
